Active and inactive are the calls of the source. The calls are words filed in the database; no cut-off is given here.
Key:
Mus musculus [1] = experiment: Neurotoxicity in Swiss mouse assessed as motor impairment at 5 mg/kg, ip administered 60 mins measured for 1 min by rotarod test; assay type: toxicity, organism-based; design: dose 5 mg/kg, route intraperitoneal; conditions: in vivo
Mus musculus [2] = experiment: Antiinflammatory activity in Swiss mouse assessed as inhibition of histamine-induced paw edema at 1 mg/kg, ip administered 30 mins prior to histamine challenge measured after 60 mins relative to untreated control; assay type: functional, organism-based; design: dose 1 mg/kg
Mus musculus [3] = experiment: Antiinflammatory activity in Swiss mouse assessed as inhibition of serotonin-induced paw edema at 1 mg/kg, ip administered 30 mins prior to serotonin challenge measured after 4 hrs relative to untreated control; assay type: functional; conditions: route intraperitoneal
Mus musculus [4] = experiment: Antiinflammatory activity in Swiss mouse assessed as inhibition of carrageenan-induced neutrophil migration into peritoneal cavity at 1 mg/kg, ip administered 30 mins prior to carrageenan challenge measured after 4 hrs relative to carrageenan-treated control; assay type: functional; conditions: route intraperitoneal
Mus musculus [5] = experiment: Antiinflammatory activity in Swiss mouse assessed as inhibition of carrageenan-induced paw edema at 0.1 mg/kg, ip measured at 3 hrs by plethysmometric analysis relative to untreated control; assay type: functional; conditions: route intraperitoneal
Mus musculus [6] = experiment: Antiinflammatory activity in Swiss mouse assessed as inhibition of carrageenan-induced paw edema at 1 mg/kg, ip measured at 3 hrs by plethysmometric analysis relative to untreated control; assay type: functional; conditions: route intraperitoneal
Mus musculus [7] = experiment: Antiinflammatory activity in Swiss mouse assessed as inhibition of carrageenan-induced paw edema at 1 mg/kg, ip measured at 4 hrs by plethysmometric analysis relative to untreated control; assay type: functional; conditions: route intraperitoneal
Mus musculus [8] = experiment: Antiinflammatory activity in Swiss mouse assessed as inhibition of carrageenan-induced paw edema at 1 mg/kg, ip measured at 2 hrs by plethysmometric analysis relative to untreated control; assay type: functional; conditions: route intraperitoneal
Mus musculus [9] = experiment: Antiinflammatory activity in Swiss mouse assessed as inhibition of carrageenan-induced paw edema at 0.3 mg/kg, ip measured at 1 hr by plethysmometric analysis relative to untreated control; assay type: functional; conditions: route intraperitoneal
Mus musculus [10] = experiment: Antinociceptive activity in Swiss mouse assessed as inhibition of acetic acid-induced abdominal writhing response at 1 mg/kg, ip administered 30 mins prior to acetic acid challenge measured for 10 to 20 mins; assay type: functional; conditions: Abdomen, route intraperitoneal
Mus musculus [11] = experiment: Antiinflammatory activity in Swiss mouse assessed as reduction of carrageenan-induced IL-1beta level into peritoneal fluid at 1 mg/kg, ip administered 1 hr prior to carrageenan challenge measured after 4 hrs by sandwich ELISA; assay type: functional, organism-based; design: dose 1 mg/kg
Mus musculus [12] = experiment: Antiinflammatory activity in Swiss mouse assessed as inhibition of carrageenan-induced paw edema at 1 mg/kg, ip measured at 1 hr by plethysmometric analysis relative to untreated control; assay type: functional; conditions: route intraperitoneal
Mus musculus [13] = experiment: Antinociceptive activity in Swiss mouse assessed as inhibition of formalin-induced paw licking at 1 mg/kg, ip administered 30 mins prior to formalin challenge measured during neurogenic phase for 1 to 5 mins in presence of opioid receptor antagonist naloxone; assay type: functional, organism-based; design: dose 1 mg/kg
Mus musculus [14] = experiment: Antiinflammatory activity in Swiss mouse assessed as inhibition of carrageenan-induced paw edema at 0.1 mg/kg, ip measured at 4 hrs by plethysmometric analysis relative to untreated control; assay type: functional; conditions: route intraperitoneal
Mus musculus [15] = experiment: Antiinflammatory activity in Swiss mouse assessed as inhibition of carrageenan-induced paw edema at 0.3 mg/kg, ip measured at 4 hrs by plethysmometric analysis relative to untreated control; assay type: functional; conditions: route intraperitoneal
Mus musculus [16] = experiment: Antiinflammatory activity in Swiss mouse assessed as inhibition of dextran sulfate-induced paw edema at 1 mg/kg, ip administered 30 mins prior to dextran sulfate challenge measured after 4 hrs relative to untreated control; assay type: functional; conditions: route intraperitoneal
Mus musculus [17] = experiment: Antiinflammatory activity in Swiss mouse assessed as inhibition of bradykinin-induced paw edema at 1 mg/kg, ip administered 30 mins prior to bradykinin challenge measured after 60 mins in presence of captopril relative to untreated control; assay type: functional; conditions: route intraperitoneal
Mus musculus [18] = experiment: Antiinflammatory activity in Swiss mouse assessed as inhibition of carrageenan-induced paw edema at 0.3 mg/kg, ip measured at 2 hrs by plethysmometric analysis relative to untreated control; assay type: functional; conditions: route intraperitoneal
Mus musculus [19] = experiment: Antiinflammatory activity in Swiss mouse assessed as reduction of carrageenan-induced TNFalpha level into peritoneal fluid at 1 mg/kg, ip administered 1 hr prior to carrageenan challenge measured after 4 hrs by sandwich ELISA; assay type: functional, organism-based; design: dose 1 mg/kg
Mus musculus [20] = experiment: Antinociceptive activity in Swiss mouse assessed as inhibition of formalin-induced paw licking at 1 mg/kg, ip administered 30 mins prior to formalin challenge measured during neurogenic phase for 1 to 5 mins; assay type: functional; conditions: route intraperitoneal
Mus musculus [21] = experiment: Antiinflammatory activity in Swiss mouse assessed as inhibition of carrageenan-induced total leukocytes migration into peritoneal cavity at 1 mg/kg, ip administered 30 mins prior to carrageenan challenge measured after 4 hrs relative to carrageenan-treated control; assay type: functional; conditions: route intraperitoneal
Mus musculus [22] = experiment: Antinociceptive activity in Swiss mouse assessed as inhibition of formalin-induced paw licking at 1 mg/kg, ip administered 30 mins prior to formalin challenge measured during inflammatory phase for 20 to 25 mins; assay type: functional; conditions: route intraperitoneal
Mus musculus [23] = experiment: Antiinflammatory activity in Swiss mouse assessed as reduction of carrageenan-induced paw myeloperoxidase activity measured per mg of tissue at 1 mg/kg, ip administered 30 mins prior to carrageenan challenge measured after 4 hrs (reference value: 10.9 +/- 1.2 U); assay type: functional; conditions: route intraperitoneal
Mus musculus [24] = experiment: Antinociceptive activity in Swiss mouse assessed as increase in latency time at 1 mg/kg, ip administered 30 mins prior to testing measured after 30 to 120 mins by hot plate test; assay type: functional, organism-based; design: dose 1 mg/kg
Mus musculus [25] = experiment: Antiinflammatory activity in Swiss mouse assessed as inhibition of carrageenan-induced paw edema at 0.1 mg/kg, ip measured at 1 hr by plethysmometric analysis relative to untreated control; assay type: functional; conditions: route intraperitoneal
Mus musculus [26] = experiment: Neurotoxicity in Swiss mouse assessed as motor impairment at 1 to 10 mg/kg, ip administered 60 mins measured for 1 min by rotarod test; assay type: toxicity, organism-based; design: dose 1-10 mg/kg, route intraperitoneal; conditions: in vivo
Mus musculus [27] = experiment: Antiinflammatory activity in Swiss mouse assessed as inhibition of carrageenan-induced paw edema at 0.1 mg/kg, ip measured at 2 hrs by plethysmometric analysis relative to untreated control; assay type: functional; conditions: route intraperitoneal
Mus musculus [28] = experiment: Antiinflammatory activity in Swiss mouse assessed as inhibition of carrageenan-induced paw edema at 0.3 mg/kg, ip measured at 3 hrs by plethysmometric analysis relative to untreated control; assay type: functional; conditions: route intraperitoneal
Mus musculus [29] = experiment: Antiinflammatory activity in Swiss mouse assessed as inhibition of carrageenan-induced paw edema at 10 mg/kg, ip measured at 2 hrs by plethysmometric analysis relative to untreated control; assay type: functional; conditions: route intraperitoneal
Mus musculus [30] = experiment: Antiinflammatory activity in Swiss mouse assessed as inhibition of serotonin-induced paw edema at 10 mg/kg, ip administered 30 mins prior to serotonin challenge measured after 4 hrs relative to untreated control; assay type: functional, organism-based; design: dose 10 mg/kg
Mus musculus [31] = experiment: Antiinflammatory activity in Swiss mouse assessed as inhibition of carrageenan-induced paw edema at 10 mg/kg, ip measured at 1 hr by plethysmometric analysis relative to untreated control; assay type: functional; conditions: route intraperitoneal
Mus musculus [32] = experiment: Antiinflammatory activity in Swiss mouse assessed as inhibition of carrageenan-induced paw edema at 10 mg/kg, ip measured at 3 hrs by plethysmometric analysis relative to untreated control; assay type: functional; conditions: route intraperitoneal
Mus musculus [33] = experiment: Antiinflammatory activity in Swiss mouse assessed as inhibition of dextran sulfate-induced paw edema at 10 mg/kg, ip administered 30 mins prior to dextran sulfate challenge measured after 4 hrs relative to untreated control; assay type: functional, organism-based; design: dose 10 mg/kg
Mus musculus [34] = experiment: Antiinflammatory activity in Swiss mouse assessed as inhibition of carrageenan-induced total leukocytes migration into peritoneal cavity at 10 mg/kg, ip administered 30 mins prior to carrageenan challenge measured after 4 hrs relative to carrageenan-treated control; assay type: functional; conditions: route intraperitoneal
Mus musculus [35] = experiment: Antiinflammatory activity in Swiss mouse assessed as inhibition of histamine-induced paw edema at 10 mg/kg, ip administered 30 mins prior to histamine challenge measured after 60 mins relative to untreated control; assay type: functional, organism-based; design: dose 10 mg/kg
Mus musculus [36] = experiment: Antiinflammatory activity in Swiss mouse assessed as inhibition of carrageenan-induced paw edema at 10 mg/kg, ip measured at 4 hrs by plethysmometric analysis relative to untreated control; assay type: functional; conditions: route intraperitoneal
Mus musculus [37] = experiment: Antiinflammatory activity in Swiss mouse assessed as inhibition of bradykinin-induced paw edema at 10 mg/kg, ip administered 30 mins prior to bradykinin challenge measured after 60 mins in presence of captopril relative to untreated control; assay type: functional, organism-based; design: dose 10 mg/kg
Mus musculus [38] = experiment: Antiinflammatory activity in Swiss mouse assessed as inhibition of carrageenan-induced neutrophil migration into peritoneal cavity at 10 mg/kg, ip administered 30 mins prior to carrageenan challenge measured after 4 hrs relative to carrageenan-treated control; assay type: functional; conditions: route intraperitoneal
Mus musculus [39] = experiment: Antiinflammatory activity in Swiss mouse assessed as reduction of carrageenan-induced paw myeloperoxidase activity measured per mg of tissue at 10 mg/kg, ip administered 30 mins prior to carrageenan challenge measured after 4 hrs (reference value: 10.9 +/- 1.2 U); assay type: functional; conditions: route intraperitoneal
Mus musculus [40] = species on record: Mus musculus; experiment: animal or person; conditions: Swiss, sc, read-out: INH
Description: Antinociceptive activity in Swiss mouse assessed as inhibition of formalin-induced paw licking at 5 mg/kg, sc administered 30 mins prior to formalin challenge measured during neurogenic phase for 1 to 5 mins

Mus musculus [41] = species on record: Mus musculus; experiment: animal or person; conditions: Swiss, Abdomen, ip, read-out: INH
Description: Antinociceptive activity in Swiss mouse assessed as inhibition of acetic acid-induced abdominal writhing response at 5 mg/kg, ip administered 30 mins prior to acetic acid challenge measured for 10 to 20 mins

Mus musculus [42] = species on record: Mus musculus; experiment: animal or person; conditions: Swiss, sc, read-out: INH; remark: listed apart in the source
Description: Antinociceptive activity in Swiss mouse assessed as inhibition of formalin-induced paw licking at 5 mg/kg, sc administered 30 mins prior to formalin challenge measured during inflammatory phase for 20 to 25 mins

Mus musculus [43] = experiment: Antinociceptive activity in Swiss mouse assessed as increase in latency time at 5 mg/kg, sc administered 30 mins prior to testing measured after 30 to 120 mins by hot plate test; assay type: functional, organism-based; design: dose 5 mg/kg

## CN1C(=O)CN=C(c2ccccc2)c2cc(Cl)ccc21 [DIAZEPAM]
Mus musculus [1]
  Activity: Toxic

## Cn1cnc(C[C@H]2COC(=O)[C@@H]2[C@H](O)c2ccccc2)c1 [EPIISOPILOTURINE]
Mus musculus [2]
  inhibition: inactive
Mus musculus [3]
  inhibition in vivo at 1 mg/kg: 46.7%
Mus musculus [4]
  inhibition in vivo at 1 mg/kg: 73.8%
Mus musculus [5]
  inhibition in vivo at 0.1 mg/kg: 55%
Mus musculus [6]
  inhibition in vivo at 1 mg/kg: 85%
Mus musculus [7]
  inhibition in vivo at 1 mg/kg: 73%
Mus musculus [8]
  inhibition in vivo at 1 mg/kg: 79.5%
Mus musculus [9]
  inhibition in vivo at 0.3 mg/kg: 48%
Mus musculus [10]
  inhibition in vivo at 1 mg/kg: 66.4%
Mus musculus [11]
  Activity: Active
Mus musculus [12]
  inhibition in vivo at 1 mg/kg: 65%
Mus musculus [13]
  Activity: inactive
Mus musculus [14]
  inhibition in vivo at 0.1 mg/kg: 49.7%
Mus musculus [15]
  inhibition in vivo at 0.3 mg/kg: 67.6%
Mus musculus [16]
  inhibition in vivo at 1 mg/kg: 54.1%
Mus musculus [17]
  inhibition in vivo at 1 mg/kg: 76.9%
Mus musculus [18]
  inhibition in vivo at 0.3 mg/kg: 71.3%
Mus musculus [19]
  Activity: Active
Mus musculus [20]
  inhibition in vivo at 1 mg/kg: 58.2%
Mus musculus [21]
  inhibition in vivo at 1 mg/kg: 55.2%
Mus musculus [22]
  inhibition in vivo at 1 mg/kg: 89.2%
Mus musculus [23]
  Activity: 3.8 U
Mus musculus [24]
  Activity: inactive
Mus musculus [25]
  inhibition in vivo at 0.1 mg/kg: 36%
Mus musculus [26]
  Activity: Non-toxic
Mus musculus [27]
  inhibition in vivo at 0.1 mg/kg: 46.8%
Mus musculus [28]
  inhibition in vivo at 0.3 mg/kg: 70%

## COc1ccc2c(c1)c(CC(=O)O)c(C)n2C(=O)c1ccc(Cl)cc1 [INDOMETHACIN]
Mus musculus [29]
  inhibition in vivo at 10 mg/kg: 50.9%
Mus musculus [30]
  inhibition: Active
Mus musculus [31]
  inhibition in vivo at 10 mg/kg: 55%
Mus musculus [32]
  inhibition in vivo at 10 mg/kg: 43.7%
Mus musculus [33]
  inhibition: Active
Mus musculus [34]
  inhibition in vivo at 10 mg/kg: 60.2%
Mus musculus [35]
  inhibition: Active
Mus musculus [36]
  inhibition in vivo at 10 mg/kg: 37%
Mus musculus [37]
  inhibition: Active
Mus musculus [38]
  inhibition in vivo at 10 mg/kg: 79.6%
Mus musculus [39]
  Activity: 3.1 U

## CN1CC[C@]23c4c5ccc(O)c4O[C@H]2[C@@H](O)C=C[C@H]3[C@H]1C5 [MORPHINE]
Mus musculus [40]
  inhibition in vivo at 5 mg/kg: 94%
Mus musculus [41]
  inhibition in vivo at 5 mg/kg: 98.3%
Mus musculus [42]
  inhibition in vivo at 5 mg/kg: 97.2%
Mus musculus [43]
  Activity: Active
